The record followed here is patent US9108930B2, “N1- and N2-carbamoyl-1,2,3-triazole serine hydrolase inhibitors and methods” (The Scripps Research Institute, priority 2011, dated 2015).

Usually IC50 stands for the midpoint of a concentration-inhibition curve. Lower therefore signals greater potency.

In test [1] the target is T1, acetylcholinesterase (ACHE) (Mus musculus, UniProt P21836).
T1 construct: full-length cDNAs encoding mouse serine hydrolases were either transfected directly; host or cells: COS-7 cells
T1 sequence (P21836 32-614): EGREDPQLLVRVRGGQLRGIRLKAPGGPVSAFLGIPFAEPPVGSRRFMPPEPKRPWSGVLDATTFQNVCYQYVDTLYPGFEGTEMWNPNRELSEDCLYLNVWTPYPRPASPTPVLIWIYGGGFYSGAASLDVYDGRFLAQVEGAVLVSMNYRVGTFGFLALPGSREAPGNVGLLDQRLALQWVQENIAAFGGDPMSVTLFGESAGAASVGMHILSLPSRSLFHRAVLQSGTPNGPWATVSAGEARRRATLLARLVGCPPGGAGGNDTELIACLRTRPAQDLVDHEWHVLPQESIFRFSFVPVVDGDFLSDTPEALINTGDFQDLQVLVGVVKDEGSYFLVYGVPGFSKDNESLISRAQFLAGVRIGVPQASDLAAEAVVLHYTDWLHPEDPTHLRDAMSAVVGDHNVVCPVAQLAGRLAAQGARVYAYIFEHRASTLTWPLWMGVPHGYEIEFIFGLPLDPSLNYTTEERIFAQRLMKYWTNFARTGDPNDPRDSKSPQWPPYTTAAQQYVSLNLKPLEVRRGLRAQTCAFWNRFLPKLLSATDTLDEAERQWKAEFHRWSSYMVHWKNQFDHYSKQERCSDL
Briefly: Competitive ABPP of ACHE recombinantly expressed in COS-7 cells. It counts as biochemical. Conditions: 30 minutes at 37° C. How it is done:
ACHE was recombinantly expressed in COS-7 cells. Whole cell proteome was mixed 1:1 with soluble mouse brain proteome and treated with DMSO or AA74-1 in vitro at indicated concentrations for 30 minutes at 37° C., after which the samples were analyzed by competitive ABPP. Note that ACHE migrates as multiple bands by SDS-PAGE due to heterogeneous glycosylation. ACHE inhibition in vivo was not observed, as reflected by the equal signals for this enzyme in competitive ABPP results shown in FIG. 5b.
Briefly, full-length cDNAs encoding mouse serine hydrolases were either transfected directly (if available in a eukaryotic expression vector) or subcloned into pcDNA3 (Invitrogen). COS-7 or HEK-293 cells were grown to about 70% confluence in 10 cm dishes in complete medium (DMEM with L-glutamine, nonessential amino acids, sodium pyruvate, and FCS) at 37° C. and 5% CO2. The cells were transiently transfected by using the appropriate cDNA or empty vector control (“mock”) and the FUGENE® 6 (Roche Applied Science) transfection reagents following the manufacturers' protocols. After 48 hrs, the cells were washed twice with phosphate-buffered saline (PBS), and collected by scraping.

The target of test [2] is T2, human APEH (Homo sapiens, UniProt P13798).
T2 construct: endogenous in cells; host or cells: SKOV3, C8161, MDA-MB-231 (soluble fractions)
T2 sequence (P13798 whole entry): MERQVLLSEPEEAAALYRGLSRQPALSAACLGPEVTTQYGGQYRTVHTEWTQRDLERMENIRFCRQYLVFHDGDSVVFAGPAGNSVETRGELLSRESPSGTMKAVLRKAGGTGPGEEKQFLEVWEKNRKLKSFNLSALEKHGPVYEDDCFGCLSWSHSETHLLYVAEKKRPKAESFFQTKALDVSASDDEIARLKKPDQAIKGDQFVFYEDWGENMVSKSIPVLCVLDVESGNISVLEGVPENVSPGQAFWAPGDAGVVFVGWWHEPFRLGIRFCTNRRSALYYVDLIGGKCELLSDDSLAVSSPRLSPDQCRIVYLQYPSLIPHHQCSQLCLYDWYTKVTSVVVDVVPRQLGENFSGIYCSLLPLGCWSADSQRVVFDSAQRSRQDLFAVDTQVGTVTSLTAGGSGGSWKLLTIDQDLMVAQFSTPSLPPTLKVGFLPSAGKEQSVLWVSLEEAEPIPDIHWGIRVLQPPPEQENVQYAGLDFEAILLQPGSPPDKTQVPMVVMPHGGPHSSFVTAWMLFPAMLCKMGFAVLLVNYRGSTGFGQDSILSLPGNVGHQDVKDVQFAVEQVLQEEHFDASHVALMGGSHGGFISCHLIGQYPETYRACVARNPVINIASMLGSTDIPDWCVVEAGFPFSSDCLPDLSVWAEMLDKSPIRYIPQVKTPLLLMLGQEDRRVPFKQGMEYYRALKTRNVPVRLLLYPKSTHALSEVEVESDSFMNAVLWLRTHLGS
The test is described as follows: Competitive ABPP, soluble fractions of human cancer cells. Format: biochemical. How it is done: The soluble fractions of human ovarian (SKOV3), melanoma (C8161), and breast (MDA-MB-231) cancer cells, as well as rat neuroblastoma (B103) cells were treated with 30 nM AA74-1 or DMSO for 30 minutes at 37° C., after which the samples were analyzed by competitive ABPP. Inhibited APEH is highlighted with boxes. Note that other SHs detected in human and mouse proteomes were not inhibited by AA74-1.

The test system of test [3] is N-terminally modified proteins (APEH substrates) in mouse T-cells. The test is described as follows: SILAC-based N-terminal labeling and enrichment in mouse T-cells.
Test [4] deals with T3, DAGLB (Mus musculus, UniProt Q91WC9).
T3 sequence (Q91WC9 1-669): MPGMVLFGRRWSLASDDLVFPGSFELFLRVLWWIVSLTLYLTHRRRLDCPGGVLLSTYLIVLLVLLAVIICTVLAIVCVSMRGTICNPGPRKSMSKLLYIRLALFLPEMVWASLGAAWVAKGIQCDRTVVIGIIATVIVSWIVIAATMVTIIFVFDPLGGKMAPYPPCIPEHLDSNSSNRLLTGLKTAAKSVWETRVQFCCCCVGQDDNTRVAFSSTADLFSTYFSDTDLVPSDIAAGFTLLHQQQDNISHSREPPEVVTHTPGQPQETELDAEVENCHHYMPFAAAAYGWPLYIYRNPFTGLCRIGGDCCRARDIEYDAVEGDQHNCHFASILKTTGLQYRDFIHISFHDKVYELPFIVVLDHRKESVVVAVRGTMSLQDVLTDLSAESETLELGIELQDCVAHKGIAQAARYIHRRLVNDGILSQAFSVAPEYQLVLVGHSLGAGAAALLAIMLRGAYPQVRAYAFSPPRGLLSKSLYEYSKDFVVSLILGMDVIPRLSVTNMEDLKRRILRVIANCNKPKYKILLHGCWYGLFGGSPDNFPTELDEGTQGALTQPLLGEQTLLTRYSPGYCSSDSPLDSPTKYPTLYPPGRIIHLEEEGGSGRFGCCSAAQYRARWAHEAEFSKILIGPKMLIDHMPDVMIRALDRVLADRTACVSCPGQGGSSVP
The test is described as follows: Gel-based ABPP assay against recombinant DAGLB (HEK293T-DAGLB lysates). Conditions: recombinant. The arrangement: Full-length cDNAs encoding serine hydrolases were purchased from Open Biosystems; V5; host or cells: HEK293T. Format: biochemical.

In test [5] the test system is serine hydrolases in mouse brain proteome. Briefly: Selectivity profile by competitive ABPP (mouse brain proteome), DAGL series. It counts as biochemical.
In test [6] the test system is serine hydrolases in the peritoneal macrophage proteome. Briefly: ABPP-MudPIT of peritoneal macrophages from treated mice, off-targets. The note with it: mouse, in vivo.
For test [7], the target named is T3, DAGLB. The test is described as follows: In situ inhibition in Neuro2A cells, competitive ABPP with HT-01. It counts as cell-based. The arrangement: from tissue; host or cells: thioglycolate-elicited peritoneal macrophages of treated mice. The note with it: 4 hours. The method, then: For gel-based competitive ABPP studies, proteomes from cells treated in situ with inhibitor for 4 h at 37° C. at the indicated concentrations (n=3) were labeled with HT-01 (1 μM) for 30 min at 37° C. After quenching, SDS-PAGE, and in-gel visualization, the percentage of enzyme activity remaining was determined by measuring the integrated optical intensity of the bands using IMAGER® software. For LC-MS substrate assays, the percentage of enzyme activity remaining was determined by comparing the specific activity (amount of 2-AG formed per min per mg of proteome) of inhibitor with DMSO-treated samples. The IC50 values were determined from a dose-response curve generated using GraphPad PRISM® software.

As for `CC(C)CC(O)(CC(C)C)c1cnn(C(=O)N2CCCC2)n1` [AA74-1], in test [1], the “ACHE inhibition in transfected cell proteome” value is “not inhibited”. Also, the IC50 in test [2] is 11 nM. The “changes in N-terminal labeling signals of five N-terminally acetylated proteins” value in test [3] (1 nM) is 2.5 to 4.6 fold. The “number of proteins with consistent two-fold or greater reductions in N-terminal labeling signals” value in test [3] (1 nM versus DMSO) was found to be 25 proteins.
Regarding `O=C(N1CCCCC1Cc1ccccc1)n1cc(-c2ccc(-c3ccccc3)cc2)nn1` (stereo not drawn) [KT109], the “activity against DAGLB” value in test [4] is “maintaining comparable potencies against DAGLB”. The “off-target activity / selectivity against other serine hydrolases” value in test [5] was “improved selectivity against FAAH, MGLL, and ABHD11”. The off-target activities result in test [6] is “carboxylesterases (Ces3 and Ces2g)”. Besides, the IC50 in test [7] turned out to be 14 nM.
In the case of `COc1ccc(-c2ccc(-c3cn(C(=O)N4CCCCC4c4ccccc4)nn3)cc2)cc1` (stereo not drawn) [KT195], the “activity against DAGLB” value in test [4] is “negligible activity against DAGLB at micromolar concentrations”. Besides, the “off-target activity / selectivity against other serine hydrolases” value in test [5] was “completely inactivated ABHD6”. For the same compound, the off-target activities result in test [6] is listed as “also inhibited”. Besides, the “activity against DAGLB in Neuro2A cells” value in test [7] is “negligible activity against DAGLB”.
